Results on two compounds are retold here after patent US12605368B2, “Suppression of neuroinflammation and composition and method therefor” (Kyoto University, priority 2020, dated 2026).

One may read the IC50 as the concentration that gives 50% inhibition. Low values mean higher potency, high ones lower potency.

The structures appear in SMILES notation.

For assay [1], the target named is DYRK1A (Homo sapiens, UniProt Q13627). Put plainly: in vitro kinase activity assay against DYRK1A. The format is biochemical. As to the method:
In Vitro Enzyme Activity Assay
The in vitro kinase activity assay was performed as described previously (Ogawa et al., Nat Commun 1, 86, 2010).

Assay [2] relates to Nrf2 in Cd11b-positive microglial cells. Briefly: Nrf2 immunocytochemistry in glial cells (nuclei of Cd11b-positive cells), with p21 siRNA. The conditions noted are these: for Nrf2 expression: data not shown; for expression of Nrf2 in Cd11b-positive microglial cells: glial cells, FIGS. 1B and 1C. The format is cell-based, murine. The procedure: Cells were plated in 96-well purecoat amine coated plates and treated as desired for each specific experiment. After immunolabeling was complete, automated image acquisition (with twenty-fold magnification of objective lens, 2×2 CCD binning, twenty-five fields per well) and analysis was performed using Opera Phenix (manufactured by PerkinElmer Co., Ltd.) equipped with Harmony software. Image acquisition was performed using a fluorescence microscope (BZ-9000, manufactured by Keyence corporation) or a confocal microscope (SP-8, manufactured by Leica) as well.
Microglial cell line BV-2 was maintained in high glucose Dulbecco's modified Eagle's medium (DMEM) (Nacalai Tesque) supplemented with 10% fetal bovine serum (Nichirei Bioscienses), 100 U/mL penicillin, and 100 μg/mL streptomycine. Primary hippocampal and cortical neuronal cultures were prepared from embryonic day 18 mice and maintained in Neurobasal medium (Life Technologies) supplemented with 2% B27 supplement, 100 U/mL, penicillin, 100 μg/mL streptomycin, and 0.5 mM L-glutamine. Dopaminergic neuronal cultures were prepared from ventral midbrain of embryonic day 13 mice and maintained in Neurobasal medium (Life Technologies) supplemented with 10% fetal bovine serum, 2% B27 supplement, 10 ng/mL GDNF, 100 U/mL penicillin, and 100 μg/mL streptomycin. For depletion of glial cells, 5 μM cytosine β-D-arabinofuranoside, 10 μM 5-fluorouracil, and 10 μM uridine (all from Sigma-Aldrich) were added at 2-day culture. Mixed glial cultures were obtained from new born murine pups (P1 to P4) and maintained in T75 or T175 flask. Media were changed every 3-4 days until the cells get confluent. Microglia were obtained either by shaking vigorously or Cd11b-positive selection (Invitrogen). For co-culture experiments, murine glial cell cultures were prepared from MGE (Medial Ganglionic Eminence) of embryonic day 13 and cultured in PLL-coated dish. Cultures were passaged twice with trypsin, and used for co-cultured assay with iPSC-derived neurons. 1039A1 iPS cells were established and maintained as described previously (Nakagawa et al., Sci Rep 4, 3594, 2014). Induction of dopaminergic precursor cells was performed as described previously (Doi et al., Stem Cell Reports 2, 337-350, 2014, Kikuchi et al., Nature 548, 592-596, 2017). Briefly, hiPS cells 1039A1 were plated on Laminin511, and differentiated in GMEM medium containing 8% KSR, Y27632 (Wako), A-83-01 (Wako), LDN193178 (STEMGENT). Purmorphamine (Wako), FGF8 (Wako, from day 1 to day 7), and CHIR99021 (Wako, from day 3 to day 12) were added. After cell sorting of Corin+ cells, cells were replated onto low attachment 96-well plates for neurosphere cultures and maintained in neurobasal medium with B27 supplement, 2 mM L-glutamine (Invitrogen), 10 ng/mL GDNF, 200 μM ascorbic acid, 20 ng/mL BDNF (all from Wako), and 400 μM dbcAMP (Sigma-Aldrich) for further 2 weeks. To avoid apoptosis, 30 μM of Y27632 (Wako) was added at the initial plating.
Cells were fixed with 4% paraformaldehyde for 10 minutes, followed by permealization with 0.2% TritonX-100 for 10 minutes. After washing in PBS, cells were blocked in 5% normal donkey serum (Jackson ImmunoResearch Laboratories)/1% BSA (SIGMA A7906)/PBS and then labeled with the primary antibodies. After washing with PBS, primary antibodies were labeled with the corresponding fluorescence-conjugated secondary antibodies. Hoechst 33342 was used to detect nuclei.
Cells were visualized with anti-Nrf2 (pseudo-color), Cd11b (magenta, microglia), and GFAP (green, astrocyte) antibodies. Scale bar=25 μm.
Glial cells were treated with the compounds 1 and 2 for indicated periods and at indicated concentrations.

Assay [3] has as its system microglia. Briefly: cytokine production of microglia upon LPS stimulation (qPCR, ELISA), with Nrf2 siRNA. The format is cell-based. The conditions noted are these: for up-regulation of proinflammatory cytokine gene expression by LPS stimulation: qPCR and ELISA, FIGS. 2A, 2B; for up-regulation of proinflammatory cytokine gene expression by LPS stimulation / induction of expression of several chemokines and iNOS mRNA: LPS stimulation; for induction of expression of several chemokines and iNOS mRNA: FIG. 2A. The procedure:
Total RNA was extracted with RNeasy kit (Qiagen) followed by cDNA synthesis using iScript (Bio-Rad). Quantitative PCRs were carried out with SYBR green ExTaq (TaKaRa). Primers for genes were designed by using PrimerBank (Wang et al., 2012).
Studies were made on whether the compounds 1 and 2 would suppress cytokine production of microglia.
In the cells treated with Nrf2 siRNA, the suppression of cytokine production was not observed. *P<0.05.
A general note: Quantitative PCR measures a nucleic acid by following its amplification.

In assay [4] the test system is iPSC-derived DA neurons transplanted in striatum. Briefly: transplantation of hiPSC-derived DA neurons into murine striatum. The format is in vivo, SCID mice. The conditions noted are these: four weeks after the transplantation; mice; administered from one hour before surgery for four days. As to the method:
(§1) C57black/6J mice, 8 to 9-week old, were intraperitoneally injected with LPS (O55:B5) (manufactured by Sigma, L2880) at 1 mg/kg once daily for four days. hiPSC-derived dopaminergic (DA) progenitors were transplanted in striatum of 4-week-old SCID mice. Drug treatment was performed one hour before LPS-injection or iPSC transplantation.
The compound 1 was initially dissolved in DMSO at a concentration of 100 mg/mL and diluted to desired concentration with 10% Tween 80 (polysorbate 80 (HX2), manufactured by HOF Corporation) in physiological saline solution, and subcutaneously delivered in a volume of 0.05 mL/kg. The compound 2 was suspended in 0.5% carboxymethylcellulose (Nacalai Tesque) and orally administered in a volume of 0.1 mL/kg at desired concentration. Drug-treated animals were anesthetized with isofluorane for blood sampling and subsequently perfused with physiological saline solution. […] Concentration of target compounds or dopamine in serum and brain homogenates were analyzed by LC/MS using an Agilent 6420 Q-TOF mass spectrometer with an Agilent 1290 Nano-flow HPLC system (Agilent Technologies). […]
Arrows indicate iPSC-derived cells that are co-labeled by TH or Nurr1 (both are dopaminergic markers). […] The transplanted DA neurons were identified by hNuclei staining and survived iPSC-derived DA neurons were quantified with co-staining of TH and Nurr1 dopaminergic markers. […]

For assay [5], the system named is mice injected with LPS. Briefly: LPS-induced neuro-inflammation and neurodegeneration in mice. The format is in vivo, C57black/6J mice. The procedure: as §1
The compound 1 was initially dissolved in DMSO at a concentration of 100 mg/mL and diluted to desired concentration with 10% Tween 80 (polysorbate 80 (HX2), manufactured by HOF Corporation) in physiological saline solution, and subcutaneously delivered in a volume of 0.05 mL/kg. The compound 2 was suspended in 0.5% carboxymethylcellulose (Nacalai Tesque) and orally administered in a volume of 0.1 mL/kg at desired concentration. Drug-treated animals were anesthetized with isofluorane for blood sampling and subsequently perfused with physiological saline solution. Brain homogenates were prepared using the Beads Crusher μT-12 system (TAITEC) in five-volume of physiological saline solution. Concentration of target compounds or dopamine in serum and brain homogenates were analyzed by LC/MS using an Agilent 6420 Q-TOF mass spectrometer with an Agilent 1290 Nano-flow HPLC system (Agilent Technologies). For measurement of dopamine, 50 mg/mL ascorbic acid was added to avoid oxidization.
Adult mouse brains were perfused with PBS then fixed in 4% paraformaldehyde, and 40-μm sections were cut with a vibratome (Leica) or 20-μm sections with a cryostat (Leica) after equilibrating in 30% sucrose/PBS. After antigen retrieval using HistoOne (Nacalai Tesque), tissues were stained with indicated antibodies.
LPS was intraperitoneally administered to mice to induce neuro-inflammation. Drug (the compound 2) was administered one hour before the LPS injection to the mice. The drug was orally administered at a indicated dose once daily.
Glial activation and cytokine production were evaluated at day 1 after the administration. Degeneration of dopaminergic nerves were evaluated at day 7 and day 14 (FIGS. 4B and 4C). […]
Animals, N=5 to 6, were analyzed regarding each condition. […]

Assay [6] has as its system hiPSC-derived dopaminergic neuron progenitors. Briefly: co-culture of hiPSC-derived dopaminergic neuron progenitors with murine glia under H2O2 oxidative stress. The format is cell-based, human. The conditions noted are these: H2O2 treatment. As to the method:
(§2) Microglial cell line BV-2 was maintained in high glucose Dulbecco's modified Eagle's medium (DMEM) (Nacalai Tesque) supplemented with 10% fetal bovine serum (Nichirei Bioscienses), 100 U/mL penicillin, and 100 μg/mL streptomycine. Primary hippocampal and cortical neuronal cultures were prepared from embryonic day 18 mice and maintained in Neurobasal medium (Life Technologies) supplemented with 2% B27 supplement, 100 U/mL, penicillin, 100 μg/mL streptomycin, and 0.5 mM L-glutamine. Dopaminergic neuronal cultures were prepared from ventral midbrain of embryonic day 13 mice and maintained in Neurobasal medium (Life Technologies) supplemented with 10% fetal bovine serum, 2% B27 supplement, 10 ng/mL GDNF, 100 U/mL penicillin, and 100 μg/mL streptomycin. For depletion of glial cells, 5 μM cytosine β-D-arabinofuranoside, 10 μM 5-fluorouracil, and 10 μM uridine (all from Sigma-Aldrich) were added at 2-day culture. Mixed glial cultures were obtained from new born murine pups (P1 to P4) and maintained in T75 or T175 flask. Media were changed every 3-4 days until the cells get confluent. Microglia were obtained either by shaking vigorously or Cd11b-positive selection (Invitrogen). […]
The neuronal survival was evaluated according to the number of human nuclei by immunostaining (FIGS. 5A and 5B).
Dopaminergic markers of Nurr1 and TH were evaluated by qPCR (FIG. 5C). […]

For assay [7], the system named is microglial cells BV-2. Briefly: Western blotting of BV-2 cells treated with compound. The format is cell-based. The conditions noted are these: time-dependently and dose-dependently, FIG. 1A. The procedure: as §2, with “(Invitrogen). For co-culture experiments, murine glial cell cultures were prepared from MGE (Medial Ganglionic Eminence) of embryonic day 13 and cultured in PLL-coated dish. Cultures were passaged twice with trypsin, and used for co-cultured assay with iPSC-derived neurons. 1039A1 iPS cells were established and maintained as described previously (Nakagawa et al., Sci Rep 4, 3594, 2014).” for “(Invitrogen).”
Total protein was extracted from cell culture samples using RIPA buffer (Wako) containing protease inhibitor cocktail (Nacalai Tesque) and phosphatase inhibitor cocktail (Nacalai Tesque). After 15 minutes of centrifugation at 15,000 rpm at 4° C., supernatants were collected and protein concentrations were measured using a Pierce 660 nm Protein Assay Kit (Thermo Scientific). […]
(In general: A western blot detects proteins with antibodies after separation by electrophoresis.)

As to `CNC1/C(=C/C(C)=O)Sc2ccc3occc3c21` (stereo not shown) [Compound 2], 32.9 nM corresponded to half-maximal inhibition in assay [1] (IC50). Also, the values for the Nrf2 expression result in assay [2] (control siRNA-treated cells) and in assay [2] (p21 siRNA-treated cells) were “increased” and “did not increase”, respectively. Further, in assay [2], the “expression of Nrf2 in Cd11b-positive microglial cells” value was “induced”. The “up-regulation of proinflammatory cytokine gene expression by LPS stimulation” value in assay [3] is given as “suppressed effectively”. Further, the “induction of expression of several chemokines and iNOS mRNA” value in assay [3] (qPCR) was “also suppressed”. Further, in assay [4], the “survival rate of iPSC-derived DA neurons” value was “improves”. For the same compound, in assay [5] (LPS-injected mice, day 7 and day 14, FIGS. 4B and 4C), the “loss of dopaminergic neurons (TH-positive cells in SNpc)” value is recorded as “rescued”. The cytokine production entry in assay [5] (qPCR and ELISA, striatum tissues at day 1, oral once daily, FIGS. 4E and 4F) is “suppressed”. For the same compound, the glial activation entry in assay [5] (qPCR on striatum tissues at day 1 from last LPS injection, oral once daily, FIG. 4D) is given as “suppressed”. The “survival of DA neurons” value in assay [6] (co-culture with glia, FIGS. 5A to 5C) was “increased depending on the added amount”. The protection of neurons result in assay [6] (without glia) is “did not occur”.

In assay [1], `c1cncc(-c2ccc3[nH]ncc3c2)c1` [Compound 1] gave an IC50 of 77 nM. Also, in assay [7], the “Nrf2 (Western blotting)” value is “up-regulated”, the “cyclin D1 (Western blotting)” value is listed as “up-regulated” and the “p21 (Western blotting)” value is listed as “up-regulated”. Also, in assay [2] (control siRNA-treated cells), the Nrf2 expression entry is “increased”. Also, in assay [2], the “expression of Nrf2 in Cd11b-positive microglial cells” value was “induced”. In assay [2] (p21 siRNA-treated cells), the Nrf2 expression entry was “did not increase”. Further, in assay [3], the “up-regulation of proinflammatory cytokine gene expression by LPS stimulation” value is “suppressed effectively”. Moreover, in assay [3] (qPCR), the “induction of expression of several chemokines and iNOS mRNA” value is listed as “also suppressed”. For the same compound, in assay [3] (cells treated with Nrf2 siRNA, qPCR, FIG. 2C), the “suppression of cytokine production” value is listed as “not observed”.
